Assay [1] deals with T1, MAGL (Homo sapiens, UniProt Q99685).
T1 construct: Proteomes (human prefrontal cortex or cell membrane fractions); from tissue
T1 sequence (Q99685 1-303): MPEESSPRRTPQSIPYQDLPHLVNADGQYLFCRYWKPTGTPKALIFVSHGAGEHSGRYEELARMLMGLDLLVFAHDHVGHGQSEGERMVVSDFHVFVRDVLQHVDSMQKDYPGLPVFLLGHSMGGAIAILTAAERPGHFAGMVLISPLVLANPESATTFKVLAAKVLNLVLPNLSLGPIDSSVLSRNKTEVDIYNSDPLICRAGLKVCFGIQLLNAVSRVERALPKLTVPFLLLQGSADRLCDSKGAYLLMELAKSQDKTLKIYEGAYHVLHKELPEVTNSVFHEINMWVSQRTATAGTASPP
In words: In vitro competitive activity-based protein profiling (gel-based, FP-Rh or HT-01 probe). The assay is classed as biochemical. In short, it runs like this:
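Human prefrontal cortex or cell membrane proteomes (1.0 mg/mL protein) preincubated with varying inhibitor concentrations 30 min at 37° C. FP-Rh or HT-01 probe (1.0 μL of 50 μM stock) then added for 30 min at room temperature; reactions quenched with SDS loading buffer and resolved by SDS-PAGE.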

For the next assay, the target named is T2, MGLL (Mus musculus, UniProt O35678).
T2 construct: Brain; from tissue; host or cells: mouse brain proteome
T2 sequence (O35678 1-303): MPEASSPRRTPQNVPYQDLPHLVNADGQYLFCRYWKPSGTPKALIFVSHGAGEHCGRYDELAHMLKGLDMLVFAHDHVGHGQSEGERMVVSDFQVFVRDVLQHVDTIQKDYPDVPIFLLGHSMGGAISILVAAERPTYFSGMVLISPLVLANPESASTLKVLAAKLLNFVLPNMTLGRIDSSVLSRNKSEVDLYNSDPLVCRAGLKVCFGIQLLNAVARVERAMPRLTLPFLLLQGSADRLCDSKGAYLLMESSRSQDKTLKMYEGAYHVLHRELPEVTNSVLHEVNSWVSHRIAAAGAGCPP
Briefly: In vitro competitive activity-based protein profiling, mouse brain proteome. The assay is classed as biochemical. How it is done: [Worded in the source for another species; this species is reported under the same test.] (§1) Proteomes (human prefrontal cortex or cell membrane fractions) (50 μL, 1.0 mg/mL total protein concentration) were preincubated with varying concentrations of inhibitors at 37° C. After 30 min, FP—Rh or HT-01 (1.0 μL, 50 μM in DMSO) was added and the mixture was incubated for another 30 min at room temperature. Reactions were quenched with SDS loading buffer (15 μL-4×) and run on SDS-PAGE.

Assay [2] deals with T3, MAGL (Mus musculus, UniProt O35678).
T3 construct: from tissue; host or cells: brain of wild-type C57Bl/6J mice
T3 sequence (O35678 1-303): T2 sequence (O35678 1-303)
Briefly: Mouse brain proteomes from inhibitor treated mice (oral gavage, brain proteomes analyzed 4 h after administration). The assay is classed as in vivo, mouse (C57Bl/6J). To be noted: brain proteome 4 h after administration, read-out: % Inh 5 mg/kg MGLL (Mouse). Summed up: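 Wild-type C57Bl/6J mice dosed orally in polyethylene glycol vehicle; brains removed 4 h post-dose and brain proteomes prepared and analysed for MAGL and serine hydrolase activity by previously established methods.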

The next assay addresses T4, ABHD6 (Mus musculus, UniProt Q8R2Y0).
T4 construct: Brain; from tissue; host or cells: mouse brain proteome
T4 sequence (Q8R2Y0 1-336): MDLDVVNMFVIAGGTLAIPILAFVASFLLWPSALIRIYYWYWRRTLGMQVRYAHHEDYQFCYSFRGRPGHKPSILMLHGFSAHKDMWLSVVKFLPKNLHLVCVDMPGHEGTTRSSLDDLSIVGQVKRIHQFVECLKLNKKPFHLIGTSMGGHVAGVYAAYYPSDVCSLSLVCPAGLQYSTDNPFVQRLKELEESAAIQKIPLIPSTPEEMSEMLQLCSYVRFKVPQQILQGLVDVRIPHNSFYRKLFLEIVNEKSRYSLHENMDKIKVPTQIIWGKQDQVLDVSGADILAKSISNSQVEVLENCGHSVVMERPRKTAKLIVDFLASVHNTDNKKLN
In words: In vitro competitive activity-based protein profiling, mouse brain proteome, ABHD6. The assay is classed as biochemical. To be noted: mouse. How it is done: [Worded in the source for another target; this target is reported under the same test.] as §1

Setting [3] is: PC3 proteome, read-out: IC50 MGLL PC3 (Human).

The record followed here is patent publication US20210214375A1 (LUNDBECK LA JOLLA RESEARCH CENTER, INC., priority 2017, published 2021).

Where two headings read alike, the source gives them in different places.

Turning to `CN(Cc1ccc(C(F)(F)F)cc1N1CCOC(C(=O)O)C1)C1(C)CCN(C(=O)OC(C(F)(F)F)C(F)(F)F)CC1` (stereo not shown) [Example 108, 4-(2-(((1-(((1,1,1,3,3,3-Hexafluoropropan-2-yl)oxy)carbonyl)-4-methylpiperidin-4-yl)(methyl)amino)methyl)-5-(trifluoromethyl)phenyl)morpholine-2-carboxylic acid], the IC50 – broadly, the midpoint of a concentration-inhibition curve – on MAGL [1] (setting [3]) is under 100 nM; on MGLL, under 100 nM; on ABHD6, 100 to 1000 nM. Moreover, the inhibition at 5 mg/kg at MAGL [2] was at most 25%.
For the compound `CC(=O)N1CC2(CCN(c3ccccc3CN3CCN(C(=O)OC(C(F)(F)F)C(F)(F)F)CC3)C2)C1` [Example 168, 1,1,1,3,3,3-Hexafluoropropan-2-yl 4-(2-(2-acetyl-2,6-diazaspiro[3.4]oetan-6-yl)benzyl)piperazine-1-carboxylate], the 50% inhibitory concentration (IC50) was under 100 nM at MAGL [1] (setting [3]), under 100 nM on MGLL and over 1000 nM at ABHD6. Also, at MAGL [2], the inhibition at 5 mg/kg is at least 75%.
For the compound `CS(=O)(=O)N1CCC2(CCN(c3cc(Cl)ccc3CN3CCN(C(=O)OC(C(F)(F)F)C(F)(F)F)CC3)CC2)C1` [Example 174, 1,1,1,3,3,3-Hexafluoropropan-4-(4-chloro-2-(2-(methylsulfonyl)-2,8-diazaspiro[4.5]decan-8-yl)benzyl)piperazine-1-carboxylate], the IC50 is under 100 nM on MAGL [1] (setting [3]), under 100 nM on MGLL and over 1000 nM on ABHD6. The inhibition at 5 mg/kg on MAGL [2] was at least 75%.
In the case of `CC(=O)N1CC2(CCN(c3cc(C(F)(F)F)ccc3CN3CCN(C(=O)OC(C(F)(F)F)C(F)(F)F)CC3)C2)C1` [Example 180, 1,1,1,3,3,3-Hexafluoropropan-2-yl 4-(2-(2-acetyl-2,6-diazaspiro[3.4]octan-6-yl)-4-(trifluoromethyl)benzyl)piperazine-1-carboxylate], the concentration for half-maximal inhibition (IC50) at MAGL [1] (setting [3]) was under 100 nM; on MGLL it was under 100 nM; at ABHD6 it was over 1000 nM. In addition, on MAGL [2], the inhibition at 5 mg/kg is at least 75%.
As to `CCN1CCC2(CCN(c3cc(C(F)(F)F)ccc3CN3CCN(C(=O)OC(C(F)(F)F)C(F)(F)F)CC3)CC2)C1` [Example 183, 1,1,1,3,3,3-Hexafluoropropan-2-yl 4-(2-(2-ethyl-2,8-diazaspiro[4.5]decan-8-yl)-4-(trifluoromethyl)benzyl)piperazine-1-carboxylate], the IC50 on MAGL [1] (setting [3]) was under 100 nM; on MGLL it was under 100 nM; on ABHD6, over 1000 nM. Further, the inhibition at 5 mg/kg on MAGL [2] was at most 25%.
On to `CS(=O)(=O)N1CCC2(CCN(c3cc(C(F)(F)F)ccc3CN3CCN(C(=O)OC(C(F)(F)F)C(F)(F)F)CC3)CC2)C1` [Example 185, 1,1,1,3,3,3-Hexafluoropropan-2-yl 4-(2-(2-(methylsulfonyl)-2,8-diazaspiro[4.5]decan-8-yl)-4-- (trifluoromethyl)benzyl)piperazine-1-carboxylate], for which the 50% inhibitory concentration (IC50) was under 100 nM at MAGL [1] (setting [3]); under 100 nM at MAGL [1] (PFC (prefrontal cortex) proteome, read-out: IC50 MGLL PFC (Human)); under 100 nM at MGLL; over 1000 nM on ABHD6. In addition, the inhibition at 5 mg/kg on MAGL [2] was at least 75%.
Take `CS(=O)(=O)N1CC2(CCN(c3cc(C(F)(F)F)ccc3CN3CCN(C(=O)OC(C(F)(F)F)C(F)(F)F)CC3)C2)C1` [Example 186, 1,1,1,3,3,3-Hexafluoropropan-2-yl 4-(2-(2-(methylsulfonyl)-2,6-diazaspiro[3.4]octan-6-yl)-4-(trifluoromethyl)benzyl)piperazine-1-carboxylate]: the concentration for half-maximal inhibition (IC50) on MAGL [1] (setting [3]) is under 100 nM; on MGLL, under 100 nM; on ABHD6 it was over 1000 nM. Moreover, on MAGL [2], the inhibition at 5 mg/kg was at least 75%.
Regarding `CC(=O)N1CCC2(CCN(c3cc(C(F)(F)F)ccc3CN3CCN(C(=O)OC(C(F)(F)F)C(F)(F)F)CC3)CC2)C1` [Example 189, 1,1,1,3,3,3-Hexafluoropropan-2-yl 4-(2-(2-acetyl-2,8-diazaspiro[4.5]decan-8-yl)-4-(trifluoromethyl)benzyl)piperazine-1-carboxylate], the IC50 on MAGL [1] (setting [3]) was under 100 nM; at MGLL it was under 100 nM; on ABHD6, over 1000 nM. Also, the inhibition at 5 mg/kg at MAGL [2] is at least 75%.
With `CC(=O)N1CC2(CCN(c3cc(C(F)(F)F)ccc3CN3CCN(C(=O)OC(C(F)(F)F)C(F)(F)F)CC3)CC2)C1` [Example 216, 1,1,1,3,3,3-Hexafluoropropan-2-yl 4-(2-(2-acetyl-2,7-diazaspiro[3.5]nonan-7-yl)-4-(trifluoromethyl)benzyl)piperazine-1-carboxylate], the figures for the IC50 at MAGL [1] (setting [3]), on MGLL and on ABHD6 were under 100 nM, under 100 nM and over 1000 nM, respectively. For the same compound, at MAGL [2], the inhibition at 5 mg/kg was at least 75%.
